The values below come from ChEMBL document CHEMBL1158636, “Discovery of a novel sulfonamide-pyrazolopiperidine series as potent and efficacious gamma-secretase inhibitors (Part II)” (Bioorg Med Chem Lett, 2010).

Data set [1] in a line: Inhibition of gamma-secretase-mediated APP cleavage assessed as amyloid beta40 level after 2 hrs by ELISA. (In general: ELISA stands for enzyme-linked immunosorbent assay.)
Data set [2] in a line: Inhibition of gamma-secretase-mediated notch cleavage after 2 hrs by ELISA.
Data set [3] addresses Gamma-secretase (Homo sapiens) (UniProt Q96BI3+Q9NZ42+Q8WW43+P49768+Q92542+P49810). The data set can be described thus: Inhibition of gamma-secretase-mediated APP cleavage in human SNC cells by ELISA. Format: cell-based.
Another data set has as its target Gamma-secretase. Nature of the data set: Inhibition of gamma-secretase-mediated notch cleavage in human SNC cells by ELISA. In kind it is cell-based.
Data set [4] can be described thus: Oxidative metabolic stability in human liver microsomes assessed as compound remaining at 2 uM after 30 mins in presence of 1 mM UDPGA. In kind it is ADME, Microsome. The following applies: liver microsomes, read-out: Stability. On the technique in general: Liver microsomes are a subcellular fraction often used to study metabolism.
The nature of data set [5]: Oxidative metabolic stability in human liver microsomes assessed as compound remaining at 1 uM after 30 mins in presence of 1 mM NADPH. In kind it is ADME, Microsome. The following applies: liver microsomes, read-out: Stability.

For the compound `O=C1c2[nH]ncc2C(C2CC2)N(S(=O)(=O)c2ccc(C(F)(F)F)nc2)C1C1CCOCC1` (racemic), the IC50 in data set [1] was found to be 1 nM; in data set [2] it was 19 nM; against Gamma-secretase, 187 nM. In addition, the ED50 in data set [3] stood at 1 nM. Moreover, the remaining at 0.5 h, 2 µM in data set [4] worked out at 64%. Besides, the remaining at 0.5 h, 1 µM in data set [5] came to 57%.
As for `CC(C)C1c2cn[nH]c2C(F)(F)CN1S(=O)(=O)c1ccc(Cl)cc1` (racemic), the IC50 in data set [1] came out at 0.7 nM; in data set [2], 12 nM; against Gamma-secretase, 574 nM. In data set [3], this compound came in with an ED50 of 11 nM. The remaining at 0.5 h, 2 µM in data set [4] is 42%. Besides, the remaining at 0.5 h, 1 µM in data set [5] came out at 2%.
Regarding `O=C1CN(S(=O)(=O)c2ccc(C(F)(F)F)nc2)C(C2CC2)c2cn[nH]c21` (racemic), the values for the IC50 (in data set [1]; in data set [2]; on Gamma-secretase) were 5.6 nM, 193 nM and above 40000 nM, respectively. In data set [3], this compound displayed an ED50 of 6000 nM. Also, the remaining at 0.5 h, 2 µM in data set [4] came out at 42%. In data set [5], the remaining at 0.5 h, 1 µM is 5%.
In the case of `O=C1c2[nH]ncc2C(C2CC2)N(S(=O)(=O)c2ccc(C(F)(F)F)cc2)C1C1CC1` (racemic), the IC50 in data set [1] turned out to be 0.4 nM; in data set [2], 21 nM; against Gamma-secretase, 2790 nM. Further, the ED50 in data set [3] stood at 21 nM. Further, the remaining at 0.5 h, 2 µM in data set [4] came out at 76%. Moreover, in data set [5], the remaining at 0.5 h, 1 µM came out at 67%.
Take `O=S(=O)(c1ccc(C(F)(F)F)cc1)N1CC(F)(F)c2[nH]ncc2C1C(F)(F)F` (racemic): the figures for the IC50 (in data set [1]; in data set [2]; at Gamma-secretase) were 0.9 nM, 10 nM and 403 nM, respectively. In data set [3], this compound had an ED50 of 4 nM. Besides, the remaining at 0.5 h, 2 µM in data set [4] was 35%. The remaining at 0.5 h, 1 µM in data set [5] was determined as 84%.
In the case of `CC1(C)C(=O)c2[nH]ncc2C(C2CC2)N1S(=O)(=O)c1ccc(C(F)(F)F)cc1` (racemic), the IC50 amounted to 7.3 nM in data set [1], 268 nM in data set [2] and 2660 nM on Gamma-secretase. In data set [3], this compound came in with an ED50 of 60 nM. The remaining at 0.5 h, 2 µM in data set [4] turned out to be 67%. The remaining at 0.5 h, 1 µM in data set [5] came to 68%.
On to `O=C1c2[nH]ncc2C(C2CC2)N(S(=O)(=O)c2ccc(C(F)(F)F)cc2)C12CC2` (racemic), for which the IC50 in data set [1] stood at 1.9 nM; in data set [2] it was 69 nM; against Gamma-secretase it was 995 nM. This compound also returned an ED50 in data set [3] of 11 nM. For the same compound, the remaining at 0.5 h, 2 µM in data set [4] was determined as 84%. Besides, the remaining at 0.5 h, 1 µM in data set [5] worked out at 85%.
In the case of `O=C1c2[nH]ncc2[C@@H](C2CC2)N(S(=O)(=O)c2ccc(C(F)(F)F)nc2)[C@H]1C1CC1` (relative stereo), the IC50 was determined as 0.3 nM in data set [1], 10 nM in data set [2] and 6700 nM against Gamma-secretase. This compound also had an ED50 in data set [3] of 130 nM. Moreover, in data set [4], the remaining at 0.5 h, 2 µM was determined as 75%. Further, the remaining at 0.5 h, 1 µM in data set [5] worked out at 77%.
With `CC(C)[C@H]1C(=O)c2[nH]ncc2[C@@H](C(C)C)N1S(=O)(=O)c1ccc(C(F)(F)F)cc1` (relative stereo), the IC50 in data set [1] worked out at 0.5 nM; in data set [2], 14 nM; at Gamma-secretase it was 2300 nM. Further, the ED50 in data set [3] turned out to be 33 nM. For the same compound, the remaining at 0.5 h, 2 µM in data set [4] was 82%. Also, the remaining at 0.5 h, 1 µM in data set [5] was 0%.
For the compound `C[C@H]1C(=O)c2[nH]ncc2[C@@H](C2CC2)N1S(=O)(=O)c1ccc(C(F)(F)F)nc1` (relative stereo), the results for the IC50 (in data set [1]; in data set [2]; against Gamma-secretase) were 0.6 nM, 21 nM and above 40000 nM, respectively. In data set [3], this compound gave an ED50 above 10000 nM. Moreover, the remaining at 0.5 h, 2 µM in data set [4] came to 59%. In data set [5], the remaining at 0.5 h, 1 µM amounted to 72%.
Take `CC[C@@H]1c2cn[nH]c2C(=O)[C@H](CC)N1S(=O)(=O)c1ccc(C(F)(F)F)nc1` (relative stereo): the values for the IC50 (in data set [1]; in data set [2]; at Gamma-secretase) were 0.8 nM, 36 nM and 2360 nM, respectively. This compound also registered an ED50 in data set [3] of 21 nM. Also, in data set [4], the remaining at 0.5 h, 2 µM was 83%. Moreover, the remaining at 0.5 h, 1 µM in data set [5] was found to be 57%.
As for `O=C1c2[nH]ncc2[C@@H](C2CC2)N(S(=O)(=O)c2ccc(C(F)(F)F)nc2)[C@@H]1C1CC1` (relative stereo), the IC50 in data set [1] turned out to be 3 nM; in data set [2] it was 66 nM; against Gamma-secretase it was 25100 nM. The ED50 in data set [3] is 374 nM. The remaining at 0.5 h, 2 µM in data set [4] turned out to be 87%. The remaining at 0.5 h, 1 µM in data set [5] turned out to be 21%.
Take `C[C@@H]1N(S(=O)(=O)c2ccc(C(F)(F)F)cc2)[C@H](C2CC2)c2cn[nH]c2C1(F)F` (relative stereo): the IC50 amounted to 1 nM in data set [1], 18 nM in data set [2] and 418 nM on Gamma-secretase. In data set [3], this compound had an ED50 of 7 nM. In addition, in data set [4], the remaining at 0.5 h, 2 µM came to 46%. Further, the remaining at 0.5 h, 1 µM in data set [5] came to 75%.
`C[C@@H]1N(S(=O)(=O)c2ccc(C(F)(F)F)nc2)[C@H](C2CC2)c2cn[nH]c2C1(F)F` (relative stereo): the half-inhibitory concentration (IC50) was 1.2 nM in data set [1], 20 nM in data set [2] and 358 nM at Gamma-secretase. In data set [3], this compound gave an ED50 of 6 nM. The remaining at 0.5 h, 2 µM in data set [4] was 59%. Besides, the remaining at 0.5 h, 1 µM in data set [5] was found to be 79%.
`CC[C@@H]1c2cn[nH]c2C(F)(F)[C@H](CC)N1S(=O)(=O)c1ccc(C(F)(F)F)nc1` (relative stereo): the values for the IC50 (in data set [1]; in data set [2]; against Gamma-secretase) were 1.8 nM, 50 nM and 304 nM, respectively. For the same compound, the ED50 in data set [3] is 6 nM. Also, the remaining at 0.5 h, 2 µM in data set [4] is 66%. In data set [5], the remaining at 0.5 h, 1 µM was determined as 22%.
As to `C[C@@H]1c2cn[nH]c2C(=O)[C@H](C)N1S(=O)(=O)c1ccc(C(F)(F)F)nc1` (stereo in doubt), the IC50 in data set [1] is 13.2 nM; in data set [2], 144 nM; against Gamma-secretase, 18300 nM. In addition, the ED50 in data set [3] is 1100 nM. Besides, the remaining at 0.5 h, 2 µM in data set [4] amounted to 91%. Moreover, the remaining at 0.5 h, 1 µM in data set [5] came out at 67%.
Turning to `CC[C@@H]1c2cn[nH]c2C(=O)[C@H](CC)N1S(=O)(=O)c1ccc(Cl)cc1` (stereo in doubt), the IC50 was 0.1 nM in data set [1], 5 nM in data set [2] and 288 nM against Gamma-secretase. Further, the ED50 in data set [3] is 5 nM. The remaining at 0.5 h, 2 µM in data set [4] is 65%. In data set [5], the remaining at 0.5 h, 1 µM came out at 10%.
With `O=S(=O)(c1ccc(C(F)(F)F)nc1)N1[C@@H](C2CC2)c2cn[nH]c2C(F)(F)[C@@H]1C1CC1` (stereo in doubt), the IC50 worked out at 0.3 nM in data set [1], 3 nM in data set [2] and 34 nM at Gamma-secretase. This compound had an ED50 in data set [3] of 0.5 nM. Further, the remaining at 0.5 h, 2 µM in data set [4] worked out at 61%. Further, the remaining at 0.5 h, 1 µM in data set [5] worked out at 53%.
Turning to `O=S(=O)(c1ccc(C(F)(F)F)nc1)N1[C@H](C2CC2)c2cn[nH]c2C(F)(F)[C@H]1C1CC1` (stereo in doubt), the values for the IC50 (in data set [1]; in data set [2]; at Gamma-secretase) were 0.1 nM, 3 nM and 13 nM, respectively. This compound displayed an ED50 in data set [3] of 0.2 nM. The remaining at 0.5 h, 2 µM in data set [4] is 41%. The remaining at 0.5 h, 1 µM in data set [5] was 43%.
Take `O=S(=O)(c1ccc(C(F)(F)F)nc1)N1[C@@H](C2CC2)C(F)(F)c2[nH]ncc2[C@H]1C1CC1` (stereo in doubt): the results for the IC50 (in data set [1]; in data set [2]; at Gamma-secretase) were 0.8 nM, 47 nM and 304 nM, respectively. Also, the ED50 in data set [3] stood at 3 nM. In data set [4], the remaining at 0.5 h, 2 µM was determined as 67%. Further, the remaining at 0.5 h, 1 µM in data set [5] stood at 71%.

In general, IC50 refers to the concentration that gives 50% inhibition.
